Columns and labels:
SH-SY5Y cell lines = experiment: Proliferation of SH-SY5Y cells (Parkinson's disease cell model), EZ-cytox; type: cell-based, human; settings: 5 days
Protocol: A medium containing DMEM/F12 (Hyclone), 10% FBS (Hyclone), and 1% penicillin-streptomycin (Hyclone) was used, and the medium was replaced every two days after seeding on a T75 plate. Subculture was performed when the cell density was 80-90%.
Then, to determine the neuronal proliferation effect, the subcultured SH-SY5Y cells were seeded in 96 wells at 5 × 10^3 cells/well. After 1 day, the medium was replaced with a 5% FBS ratio, and the cells were treated with the compound of formula (1a-1) at concentrations serially diluted 2-fold from 500 nM to 15.6 nM and cultured for 5 days. The medium was replaced with 10% FBS containing the drug every other day. The culture medium with 10% FBS was used as a control. After 5 days, the amount of living cells was measured at 450 nm absorbance using EZ-cytox (DoGen) to compare the cell viability.

[1] = tested on: tyrosine hydroxylase (TH); experiment: Differentiation of pluripotent stem cells into dopaminergic neurons: TH expression; type: cell-based
Protocol: Pluripotent stem cells were seeded in AggreWell plates (stemcell) at 5,000 cells/microwell and cultured for 5 days in E6 medium (GIBCO) to induce embryonic body (EB) formation. For neural rosette formation, EBs were seeded into 35 mm dishes in groups of 30 and cultured for 10 days in N2bF medium. The 35 mm dishes were used after being coated with 15 µg/ml of poly-L-ornithine (sigma) and 1 µg/ml of fibronectin (sigma). The N2Bf medium composition was DMEM/F12 (GIBCO), N2 supplement (stemcell) 1×, 10% NEAA (GIBCO), 55 µM betaMercaptoethanol (GIBCO), bFGF (peprotech) 20 ng/ml. For the formation of spherical neural masses (SNMs), rosette masses were sliced and cultured in petri dishes with N2bF medium. SNMs were no larger than 500 µM in size and were sliced and cultured for 3 to 4 passages. After subculture of SNM, the clumps were broken into small pieces using a tungsten mesh (Nilaco) for the neural progenitor cell (NPC) culture step, and then attached to a PLO/FN-coated dish and cultured in N2bF medium. To differentiate NPCs into dopaminergic neurons, the medium was replaced with an ITS-B27 medium after 2 days of NPC culture. The ITS-B27 medium composition was DMEM/F12 (GIBCO), D-(+)-glucose (sigma) 1.5 mg/ml, insulin (wako) 5 µg/ml, transferrin (wako) 50 µg/ml, selenite (sigma) 30 nM, GlutaMAX (GIBCO) 2.5%, and B27 (GIBCO) 1×. After 4 days of NPC culture, 200 ng/ml of Sonic Hedgehog and 100 ng/ml of FGF8 (peprotech) were added to the ITS-B27 medium. After 6 days of NPC culture, 200 ng/ml of Sonic Hedgehog, 20 ng/ml of GDNF, 20 ng/ml of BDNF (peprotech), 200 µM of ascorbic acid, and 500 µM of cAMP (sigma) were added to the ITS-B27 medium and cultured for approximately 5 weeks. The compound of formula (1a-1) was treated starting from the stage 2 days after NPC culture. […]
The effect of the compound of formula (1a-1) on differentiation into neurons was evaluated by comparing the expression of tyrosine hydroxylase (TH) and dopamine transporter (DAT) depending on the presence or absence of treatment with the compound of formula (1a-1).

SIRT1 [2] = experiment: SIRT1 expression in mouse vascular cells; type: cell-based
Tau protein = experiment: Tau expression in mouse brain of AD-induced animal model, fluorescence microscopy; type: in vivo, mice; settings: 1 mg/kg intraperitoneally once every 3 days for 2 weeks; brain sections at 1 week and 4 weeks after drug administration
Protocol: (§1) To determine the therapeutic effect on Alzheimer's Disease (AD), the effects on amyloid beta monomer (monomeric Aβ, mAβ) and Tau protein, which are biomarkers of AD, were analyzed in an AD-induced animal model.
(§2) APP/PS/Tau transgenic mice were used as an AD-induced animal model. The compound of formula (1a-1) was administered intraperitoneally once every 3 days at a concentration of 1 mg/kg to 12-week-old transgenic mice for 2 weeks, and the expression of mAβ and Tau proteins in the mouse brain was measured after 1 and 4 weeks. After anesthetizing the mouse, the cervical region was incised with a dissecting tool, and then the occipital region was incised to remove both sides of the skull. The brain was washed with phosphate buffered saline (PBS) and fixed with 4% paraformaldehyde (Sigma, St Louis, MO, USA) for 12 hours at 4°C. These were cut to a thickness of approximately 10 µm using a vibratome, and hippocampus and cortex sections were collected and placed in 24 wells. PBS was added to the wells containing the fixed tissue sections, and fluorescent nanoparticles (QD565, red fluorescence) conjugated with anti-amyloid antibodies and anti-Tau antibodies (Santa Cruz, USA) were added to each 2 µM, and reacted at 4°C for 12 hours. The expression of mAβ and Tau was confirmed by fluorescence microscopy.

[3] = tested on: amyloid beta monomer (monomeric Aβ, mAβ); experiment: mAβ expression in mouse brain of AD-induced animal model, fluorescence microscopy; type: in vivo, mice; settings: 1 mg/kg intraperitoneally once every 3 days for 2 weeks; brain sections at 1 week and 4 weeks after drug administration
Protocol: as §1, §2

C57BL/6 mice = experiment: In vivo permeability of mouse organs after CLP, Evans blue dye; settings: treated at 6 and 16 hours after CLP, Evans blue dye at 18 hours
Protocol: Permeability was measured by an in vitro method using cell culture and in vivo method using Evans blue dye. To increase permeability, LPS was used in the in vitro method and CLP treatment was used in the in vivo method.
To measure permeability by an in vivo method, the compound of formula (1a-1) was treated at 6 and 16 hours after CLP treatment in the same manner as in Experimental Example 7 above, and 200 µl of a 0.5% Evans blue dye (EBD) solution was administered intravenously at 18 hours, circulated for 1 hour, and organs were harvested to visually confirm the presence of dye. The organs were then homogenized in a homogenizer to extract the dye at 55 °C for 48 hours, and permeability was determined by measuring absorbance at 620 nm.

SIRT1 [4] = experiment: SIRT1 expression in HUVECs by western blot; type: cell-based, human; settings: 24 hours
Protocol: To determine the increase in SIRT1 expression by the compound of formula (1a-1) prepared in Example 1 above in human umbilical vein endothelial cells (HUVECs), HUVECs were seeded at 5 × 10^5/4 ml in a 60 mm cell culture dish using ECBM2 medium (Promocell) and stabilized for 12 hours in an incubator maintained at 37°C and 5% CO2, respectively.
The cells were then treated with 10 nM, 100 nM and 1000 nM of the compound of formula (1a-1) prepared in Example 1 above, respectively, and incubated for another 24 hours, and then SIRT1 expression was determined by western blot.

CCCCCCCCCCCCCC[C@H]1OP(=O)(O)O[C@H]1[C@@H](N)CO.Cl [formula (1a-1), (4S,5R)-4-((S)-1-amino-2-hydroxyethyl)-2-hydroxy-5-tetradecyl-1,3,2-dioxaphosphoran-2-oxide hydrochloride]
proliferation of nerve cells (SH-SY5Y cell lines; 15.6 nM to 500 nM): increases with increasing concentrations
concentration of maximum proliferative potency (SH-SY5Y cell lines): ~100 nM
TH expression at early time ([1]; 3 weeks of treatment, normally increases after more than 5 weeks of differentiation): elevated
expression of TH ([1]; cell fluorescence immunostaining): increased
TH expression ([1]; western blot of 5-week differentiation sample): increased
concentration of maximum expression (SIRT1) (SIRT1 [2]): 100 ng/mL
red fluorescence for Tau (Tau protein): negligible
red fluorescence for mAβ [3]: negligible
amount of EBD in each organ (C57BL/6 mice): returns to normal
expression of SIRT1 (SIRT1 [4]; 10 nM): increases
EC50 (SIRT1 [4]; read-out: concentration (EC50) that increased the expression of SIRT1 by 50%): ~10 nM
